Experimental data reported in the NIST ThermoML archive (doi:10.1021/je0201976).
“And” between values parts separate entries of the source, which are not always exact repeats. Equal entries are not always repeated. ± gives the expanded uncertainty stated by the source.

Details: Liquid
[1] = Visual observation in an unstirred cell

FC(C(F)(F)F)C(F)(F)OCC(F)(F)C(F)(F)F (stereo not given)
vapor or sublimation pressure (312.48 K): 14.7 ± 1 kPa
vapor or sublimation pressure (342.64 K): 54.8 ± 1 kPa
vapor or sublimation pressure (352.72 K): 79.1 ± 1 kPa
vapor or sublimation pressure (362.78 K): 113.1 ± 1.1 kPa
vapor or sublimation pressure (372.77 K): 157 ± 1.1 kPa
vapor or sublimation pressure (382.71 K): 211.7 ± 1.2 kPa
vapor or sublimation pressure (402.89 K): 360.6 ± 1.4 kPa
vapor or sublimation pressure (412.9 K): 460.7 ± 1.7 kPa
vapor or sublimation pressure (422.79 K): 575.4 ± 1.9 kPa
vapor or sublimation pressure (432.96 K): 717.1 ± 2.3 kPa
vapor or sublimation pressure (443 K): 881.9 ± 2.8 kPa
vapor or sublimation pressure (453 K): 1067.4 ± 3.3 kPa
vapor or sublimation pressure (461.47 K): 1255.3 ± 3.9 kPa
vapor or sublimation pressure (473.07 K): 1548.7 ± 4.8 kPa
vapor or sublimation pressure (483.09 K): 1842.8 ± 5.7 kPa
vapor or sublimation pressure (486.67 K): 1954.3 ± 6.1 kPa
Critical density: 567 ± 2 kg/m3
Critical pressure (Direct measurement): 1950 ± 7 kPa
Critical temperature [1]: 486.48 ± 0.07 K

COCC(F)(F)C(F)(F)C(F)(F)F [1,1,1,2,2,3,3-heptafluoro-4-methoxybutane]
vapor or sublimation pressure (291.65 K): 12.1 ± 1 kPa
vapor or sublimation pressure (302.31 K): 20.4 ± 1 kPa
vapor or sublimation pressure (312.43 K): 32.3 ± 1 kPa
vapor or sublimation pressure (322.64 K): 48.9 ± 1 kPa
vapor or sublimation pressure (332.66 K): 71.5 ± 1 kPa
vapor or sublimation pressure (337.71 K): 85.4 ± 1 kPa
vapor or sublimation pressure (342.7 K): 101.2 ± 1 kPa
vapor or sublimation pressure (347.73 K): 119.2 ± 1.1 kPa
vapor or sublimation pressure (362.74 K): 189.2 ± 1.2 kPa
vapor or sublimation pressure (372.75 K): 250.2 ± 1.3 kPa
vapor or sublimation pressure (382.82 K): 326.6 ± 1.4 kPa
vapor or sublimation pressure (392.85 K): 419.6 ± 1.6 kPa
vapor or sublimation pressure (402.88 K): 531.3 ± 1.9 kPa
vapor or sublimation pressure (412.9 K): 664.3 ± 2.2 kPa
vapor or sublimation pressure (422.92 K): 820.3 ± 2.6 kPa
vapor or sublimation pressure (432.95 K): 1004.6 ± 3.2 kPa
vapor or sublimation pressure (442.98 K): 1216.4 ± 3.9 kPa
vapor or sublimation pressure (453 K): 1462.9 ± 4.7 kPa
vapor or sublimation pressure (463.01 K): 1746.1 ± 5.6 kPa
vapor or sublimation pressure (473.05 K): 2071.1 ± 6.7 kPa
vapor or sublimation pressure (478.44 K): 2266.3 ± 7.3 kPa
vapor or sublimation pressure (481.5 K): 2382.5 ± 7.6 kPa
vapor or sublimation pressure (481.66 K): 2389.1 ± 7.7 kPa
Critical density: 497 ± 2 kg/m3
Critical pressure (Direct measurement): 2381 ± 9 kPa
Critical temperature [1]: 481.54 ± 0.17 K

FC(F)C(F)(F)OCC(F)(F)C(F)(F)F [1,1,1,2,2-pentafluoro-3-(1,1,2,2-tetrafluoroethoxy)propane]
vapor or sublimation pressure (299.64 K): 17.7 ± 1 kPa
vapor or sublimation pressure (332.69 K): 69.8 ± 1 kPa
vapor or sublimation pressure (337.7 K): 84 ± 1 kPa
vapor or sublimation pressure (342.7 K): 100.3 ± 1 kPa
vapor or sublimation pressure (347.73 K): 119.2 ± 1.1 kPa
vapor or sublimation pressure (352.74 K): 140.6 ± 1.1 kPa
vapor or sublimation pressure (362.76 K): 192.2 ± 1.1 kPa
vapor or sublimation pressure (372.78 K): 256.8 ± 1.2 kPa
vapor or sublimation pressure (382.81 K): 337.6 ± 1.4 kPa
vapor or sublimation pressure (392.84 K): 436.3 ± 1.6 kPa
vapor or sublimation pressure (402.86 K): 555.1 ± 1.9 kPa
vapor or sublimation pressure (412.89 K): 700 ± 2.2 kPa
vapor or sublimation pressure (422.91 K): 868.6 ± 2.7 kPa
vapor or sublimation pressure (432.95 K): 1066.1 ± 3.3 kPa
vapor or sublimation pressure (442.97 K): 1298 ± 4.1 kPa
vapor or sublimation pressure (447.99 K): 1427.4 ± 4.5 kPa
vapor or sublimation pressure (453 K): 1567.3 ± 4.9 kPa
vapor or sublimation pressure (458.02 K): 1718.4 ± 5.4 kPa
vapor or sublimation pressure (464.03 K): 1914.1 ± 6 kPa
vapor or sublimation pressure (468.05 K): 2055.2 ± 6.4 kPa
vapor or sublimation pressure (473.08 K): 2246.6 ± 7 kPa
Critical density: 550 ± 2 kg/m3
Critical pressure (Direct measurement): 2244 ± 5 kPa
Critical temperature [1]: 473.01 ± 0.1 K

FC(C(F)(F)F)C(F)(F)OCC(F)(F)F (stereo not given) [1,1,1,2,3,3-hexafluoro-3-(2,2,2-trifluoroethoxy)propane]
vapor or sublimation pressure (302.76 K): 18.7 ± 1 kPa
vapor or sublimation pressure (312.63 K): 29.6 ± 1 kPa
vapor or sublimation pressure (322.65 K): 44.6 ± 1 kPa
vapor or sublimation pressure (332.64 K): 65.7 ± 1 kPa
vapor or sublimation pressure (342.72 K): 93.9 ± 1 kPa
vapor or sublimation pressure (352.73 K): 131 ± 1.1 kPa
vapor or sublimation pressure (362.77 K): 179.1 ± 1.1 kPa
vapor or sublimation pressure (372.79 K): 239.7 ± 1.2 kPa
vapor or sublimation pressure (382.83 K): 315.9 ± 1.4 kPa
vapor or sublimation pressure (392.84 K): 408 ± 1.5 kPa
vapor or sublimation pressure (402.89 K): 521.2 ± 1.8 kPa
vapor or sublimation pressure (412.92 K): 657.3 ± 2.1 kPa
vapor or sublimation pressure (422.94 K): 814.3 ± 2.6 kPa
vapor or sublimation pressure (432.97 K): 1004.4 ± 3.1 kPa
vapor or sublimation pressure (443 K): 1225.6 ± 3.8 kPa
vapor or sublimation pressure (453.02 K): 1480.3 ± 4.6 kPa
vapor or sublimation pressure (463.04 K): 1778.5 ± 5.5 kPa
vapor or sublimation pressure (473.06 K): 2125 ± 6.6 kPa
vapor or sublimation pressure (475.79 K): 2236.1 ± 7 kPa
Critical density: 563 ± 2 kg/m3
Critical pressure (Direct measurement): 2233 ± 11 kPa
Critical temperature [1]: 475.74 ± 0.09 K

FC(F)C(F)(F)COC(F)(F)C(F)C(F)(F)F (stereo not given) [1,1,1,2,3,3-hexafluoro-3-(2,2,3,3-tetrafluoropropoxy)propane]
vapor or sublimation pressure (285.28 K): 6.2 ± 1.1 kPa
vapor or sublimation pressure (302.65 K): 12.5 ± 1.3 kPa
vapor or sublimation pressure (312.63 K): 19.8 ± 1.5 kPa
vapor or sublimation pressure (322.62 K): 30.9 ± 1.9 kPa
vapor or sublimation pressure (332.69 K): 45.8 ± 2.5 kPa
vapor or sublimation pressure (342.69 K): 62.9 ± 3.4 kPa
vapor or sublimation pressure (352.75 K): 88.5 ± 4.6 kPa
vapor or sublimation pressure (362.72 K): 129.9 ± 6.7 kPa
vapor or sublimation pressure (372.8 K): 175.3 ± 8.9 kPa
vapor or sublimation pressure (382.83 K): 229 ± 12 kPa
vapor or sublimation pressure (392.86 K): 294.8 ± 15 kPa
vapor or sublimation pressure (402.89 K): 374.7 ± 19 kPa
vapor or sublimation pressure (412.92 K): 469.1 ± 24 kPa
vapor or sublimation pressure (422.94 K): 581.8 ± 29 kPa
vapor or sublimation pressure (432.97 K): 715.5 ± 36 kPa
vapor or sublimation pressure (443 K): 870.9 ± 43 kPa
vapor or sublimation pressure (453.03 K): 1049.5 ± 52 kPa
vapor or sublimation pressure (463.06 K): 1252.9 ± 62 kPa
vapor or sublimation pressure (473.08 K): 1484.4 ± 74 kPa
vapor or sublimation pressure (481.14 K): 1745.4 ± 87 kPa
vapor or sublimation pressure (490.97 K): 2048 ± 100 kPa
vapor or sublimation pressure (499.97 K): 2137.8 ± 400 kPa
vapor or sublimation pressure (500.79 K): 2176.3 ± 400 kPa
Critical pressure: 2172 ± 82 kPa
Critical temperature: 516.21 ± 0.31 K

FCC(F)(F)F [1,1,1,2-tetrafluoroethane]
Critical density: 508 ± 2 kg/m3
Critical pressure (Direct measurement): 4051 ± 5 kPa
Critical temperature [1]: 374.13 ± 0.07 K

FC(F)(F)COCC(F)(F)F [1,1,1-trifluoro-2-(2,2,2-trifluoroethoxy)ethane]
vapor or sublimation pressure (293.4 K): 18 ± 1 kPa
vapor or sublimation pressure (293.59 K): 18.2 ± 1 kPa
vapor or sublimation pressure (303.09 K): 27.9 ± 1 kPa
vapor or sublimation pressure (303.12 K): 28 ± 1 kPa
vapor or sublimation pressure (313.12 K): 42.6 ± 1 kPa
vapor or sublimation pressure (313.14 K): 42.8 ± 1 kPa
vapor or sublimation pressure (323.15 K): 63.3 ± 1 kPa
vapor or sublimation pressure (323.17 K): 63.4 ± 1 kPa
vapor or sublimation pressure (333.2 K): 91.3 ± 1 kPa and 91.4 ± 1 kPa
vapor or sublimation pressure (338.22 K): 109 ± 1.1 kPa
vapor or sublimation pressure (343.24 K): 129.2 ± 1.1 kPa
vapor or sublimation pressure (353.27 K): 178.3 ± 1.1 kPa
vapor or sublimation pressure (353.28 K): 178.3 ± 1.1 kPa
vapor or sublimation pressure (363.31 K): 241.1 ± 1.2 kPa
vapor or sublimation pressure (373.34 K): 320 ± 1.4 kPa
vapor or sublimation pressure (373.35 K): 320.1 ± 1.4 kPa
vapor or sublimation pressure (383.38 K): 417.4 ± 1.6 kPa and 417.3 ± 1.6 kPa
vapor or sublimation pressure (393.43 K): 536.2 ± 1.8 kPa and 536.3 ± 1.8 kPa
Critical density: 500 ± 2 kg/m3
Critical pressure (Direct measurement): 2783 ± 5 kPa
Critical temperature [1]: 476.31 ± 0.09 K

FC(F)OCC(F)(F)F [1,1,1-trifluoro-2-(difluoromethoxy)ethane]
vapor or sublimation pressure (294.35 K): 72.3 ± 1 kPa
vapor or sublimation pressure (298.14 K): 84.3 ± 1 kPa
vapor or sublimation pressure (300.2 K): 91.5 ± 1 kPa
vapor or sublimation pressure (303.14 K): 102.8 ± 1 kPa
vapor or sublimation pressure (313.12 K): 148.1 ± 1.1 kPa
vapor or sublimation pressure (323.16 K): 207.8 ± 1.2 kPa
vapor or sublimation pressure (333.19 K): 284.6 ± 1.3 kPa
vapor or sublimation pressure (343.23 K): 381.2 ± 1.5 kPa
vapor or sublimation pressure (353.26 K): 500.9 ± 1.8 kPa
vapor or sublimation pressure (363.3 K): 646.8 ± 2.1 kPa
vapor or sublimation pressure (373.34 K): 823 ± 2.6 kPa
vapor or sublimation pressure (383.37 K): 1031.9 ± 3.2 kPa
vapor or sublimation pressure (393.42 K): 1282.6 ± 4 kPa
vapor or sublimation pressure (403.45 K): 1575.8 ± 4.9 kPa
vapor or sublimation pressure (413.47 K): 1919.5 ± 6 kPa
vapor or sublimation pressure (423.52 K): 2334.2 ± 7.3 kPa
vapor or sublimation pressure (433.56 K): 2798.5 ± 8.7 kPa
vapor or sublimation pressure (443.56 K): 3339.2 ± 10 kPa
Critical pressure: 3457 ± 19 kPa
Critical temperature: 444.88 ± 0.31 K
